How the values were obtained:
[1] = Recrystallization of benzocaine from the formulation after cooling to room temperature; type: physicochemical
Description: The formulation is prepared by first mixing the topical anesthetic, solubilizer, homopolymers and copolymers together and heating the mixture at about 80° C. while stirring. The perfume oil, skin conditioning oils and water or a thickening agent, depending on the type of composition desired, can be added after dissolution of all of the above components being heated has occurred.
This overall recrystallization problem is easily remedied by reheating the mixture either in a hot water bath or briefly in a microwave oven (<10 seconds). […] This is an improvement over the known art.
The following components were dissolved by stirring while heating in a water bath at 80° C. All of the following protocols are actual experiments developed for the production of the formulation.
After the above components were dissolved, the following components were added to the resulting solution while still heating.
The solution was then cooled to room temperature.

scalp or skin = experiment: Desensitization of the scalp or skin, pain relief in hair treatment and manipulation procedures; type: in vivo; settings: benzocaine concentration approximately 20 to 30 weight percent of the formulation

benzocaine staying in solution ([1]; about 20 weight percent benzocaine, formulation cooled to room temperature): stays in solution
re-solubility of the reheated mixture ([1]; about 22 to about 30 weight percent benzocaine, reheated in hot water bath or microwave oven (<10 seconds)): Total re-solubility is achieved
precipitation in the mixture ([1]; about 22 to about 30 weight percent benzocaine, several hours after cooling to room temperature): some precipitation is observed
Compound: CCOC(=O)c1ccc(N)cc1 [benzocaine, ethyl-p-aminobenzoate]
recrystallization ([1]; about 20 weight percent benzocaine, after 24 hours): very small amount of recrystallization may be observed
relief of pain associated with hair treatment and manipulation procedures (scalp or skin): effective at relieving the pain
